According to patent US20040147557A1, “Aryl piperidine derivatives as inducers of ldl-receptor expression” (priority 2003, published 2004):
Read-outs that look alike come from different tables or passages of the source. Values belong to the molecule of their own block, whether it stands above or below them.

Tests used:
[1] = test system: LDL-r promoter; assay: LDL-r promoter luciferase reporter gene assay in stably transfected HepG2 cells; assay type: cell-based, human; conditions: HepG2 cells with LDL-r promoter-luciferase construct, 24 hours incubation, RPMI medium with 2% lipoprotein-deficient serum, induction of luciferase activity, read-out: In vitro (IC50)
Experimental: The ability of the compounds of the invention to induce LDL-r expression by human hepatocytes in vitro is determined using a human hepatocarcinoma cell line, Hep G2, as a model system. A reporter gene assay using the LDL-r promoter in front of the reporter gene Luciferase is used as a primary screen.
HepG2 cells, stably transfected with a construct comprising the LDL-r promoter and the luciferase reporter gene, were seeded at 50.000 cells/well in 96 well plates. After 1 day, cells were incubated with compounds for 24 hours in RPMI medium containing 2% of lipoprotein-deficient serum. Compounds were tested from 10^−6M to 10^−9M. Cell lysates were prepared and the luciferase activity was measured by the luciferase assay system (Promega). Induction of luciferase activity was calculated taking untreated cells as control and ED50 of each compounds was determinated compared to the ED50 of an internal standart.

[2] = test system: fat-fed hamsters; assay: Oral administration to fat-fed hamsters, reduction of VLD/LDL cholesterol and TG plasma levels; assay type: in vivo, hamster; conditions: hamsters fed 0.2% cholesterol and 10% coconut oil diet, once a day for 3 days, reduction in VLD/LDL cholesterol and TG plasmatic levels
Experimental: The in vivo profile of the compounds is evaluated by oral administration of the compounds of the invention to fat-fed hamsters. Measurements of VLD/LDL cholesterol and triglycerides upon treatment allow the activity to be determined.
Compounds were prepared for oral administration by milling with 0.5% hydroxypropylmethylcellulose and 5% Tween 80. Hamsters were fed for 2 weeks with a diet containing 0.2% of cholesterol and 10% of coconut oil. Then compounds were administrated once a day for 3 days, from 20 to 0.2 mg/kg. Plasma lipid levels including total cholesterol, VLD/LDL cholesterol, VLD/LDL triglycerides and HDL-cholesterol were determinated after ultracentrifugation (density 1.063 g/ml to separate VLD/LDL fraction and HDL fraction) using the Biomerieux enzymatic kit. Reductions in VLD/LDL cholesterol and TG plasmatic levels were calculated taking solvant treated animals as control and ED50 of each compound was determined.

Structure (SMILES): COc1c(C2CCN(CCCCNC(=O)c3ccc(-c4ccc(C#N)cc4)cc3)CC2)ccc2c1CCCC2 [Example 11, 4′-Cyano-biphenyl-4-carboxylic Acid {4-[4-(1-methoxy-5,6,7,8-tetrahydro-naphtalen-2-yl)-piperidin-1-yl]-butyl}-amide]
- IC50 [1]: 10 nM
- In vivo (ED50) [2]: 1 mg/kg

Structure (SMILES): Cc1ccc(C2CCN(CCCCNC(=O)c3ccc(-c4ccc(C#N)cc4)cc3)CC2)c(O)c1 [Example 18, 4′-Cyano-biphenyl-4-carboxylic Acid {4-[4-(2-hydroxy-4-methyl-phenyl)-piperidin-1-yl]-butyl}-amide]
- melting point: 184 °C

Structure (SMILES): COc1c(C2CCN(CCCCNC(=O)c3ccc(-c4ccc(Cl)cc4)cc3)CC2)ccc2ccccc12 [Example 3, 4′-Chloro-biphenyl-4-carboxylic Acid {4-[4-(1-methoxy-naphtalen-2-yl)-piperidin-1-yl]-butyl}-amide]
- IC50 [1]: 10 nM
- In vivo (ED50) [2]: 2 mg/kg

Continued, in another order:

- melting point: 247 to 249 °C
Structure (SMILES): CCc1ccc(C2CCN(CCCCNC(=O)c3ccc(-c4ccc(C(F)(F)F)cc4)cc3)CC2)c(OCC2CC2)c1 [Example 2, 4′-Trifluoromethyl-biphenyl-4-carboxylic Acid [4-[4-(2-cyclopropylmethoxy-4-ethyl-phenyl)-piperidin-1-yl]-butyl]-amide]

- IC50 ([1]; Homo sapiens): 10 nM
- melting point: 165 °C
Structure (SMILES): CCOc1cc(CC)ccc1C1CCN(CCCCNC(=O)c2ccc(-c3ccc(C#N)cc3)cc2)CC1 [Example 5, 4′-Cyano-biphenyl-4-carboxylic Acid {4-[4-(2-ethoxy-4-ethyl-phenyl)-piperidin-1-yl]-butyl}-amide]
- ED50 ([2]; Mesocricetus auratus, 72 h, read-out: In vivo (ED50)): 2 mg/kg

- melting point: 252 °C
Structure (SMILES): CCc1ccc(C2CCN(CCCCNC(=O)c3ccc(-c4ccc(C#N)cc4)cc3)CC2)c(O)c1 [Example 14, 4′-Cyano-biphenyl-4-carboxylic Acid {4-[4-(2-hydroxy-4-ethyl-phenyl)-piperidin-1-yl]-butyl}-amide]

- melting point: 179 to 180 °C
Structure (SMILES): CCOc1cc(CC)ccc1C1CCN(CCCCNC(=O)c2ccc(-c3ccc(S(C)(=O)=O)cc3)cc2)CC1 [Example 12, 4′-Methanesulfonyl-biphenyl-4-carboxylic Acid {4-[4-(2-ethoxy-4-ethyl-phenyl)-piperidin-1-yl]-butyl}-amide]
